# Results as given in patent US11466012B2, “Tetrahydroisoquinoline compounds” (ALLINKY BIOPHARMA, priority 2018, dated 2022).
# Key:
# [1] = tested on: A549 lung carcinoma cell line bearing KRas^G12S oncogenic mutation; experiment: Cell proliferation inhibition (MTS), A549; type: cell-based; conditions: Homo sapiens, 72 h incubation, MTS, compounds 1-53, median from experimental results
# Procedure: (§1) • Cell line #1: A549. Lung carcinoma cell line bearing KRas^G12S oncogenic mutation • Cell line #2: H358. non-small cell lung cancer line bearing KRas^G12C oncogenic mutation • Cell line #3: PANC-1. epithelioid carcinoma of the pancreas cell line bearing KRas^G12D oncogenic mutation • Cell line #4: RPMI. myeloma cell line bearing KRas^G12A oncogenic mutation
# (§2) Cell lines were cultured in DMEM or RPMI-1640 supplemented with FBS 10%. In order to assess the antiproliferative effect of compounds, cells were seeded at a density of 1.8×10^3, 6.2×10^3, 7.8×10^3, 21×10^3 and 2×10^3 cells/cm^2, respectively, in tissue culture microplates and were incubated in humidified atmosphere at 5% CO2. 24 h later, compounds dissolved in DMSO 100% were added for different final concentrations ranging between 0.1 and 50 μM for a final DMSO concentration of 0.5% and the plates were incubated for another 72 h. After incubation, proliferation was quantified using CellTiter 96® Aqueous Non-Radioactive Cell Proliferation Assay-MTS (Promega #G5421) following manufacturer instructions. Amount of 490 nm absorbance is directly proportional to the number of living cells. Absorbance was recorded with a BMG Fluostar Optima Microplate Reader and normalized to control with vehicle.
# [2] = tested on: RPMI-8226 myeloma cell line bearing KRas^G12A oncogenic mutation; experiment: Cell proliferation inhibition (MTS), RPMI-8226; type: cell-based; conditions: Homo sapiens, 72 h incubation, MTS, compounds 1-53, median from experimental results
# Procedure: as §1, §2
# [3] = tested on: H358 non-small cell lung cancer line bearing KRas^G12C oncogenic mutation; experiment: Cell proliferation inhibition (MTS), H358; type: cell-based; conditions: Homo sapiens, NCI-H358; 72 h incubation, MTS; compounds 1-53, median from experimental results
# Procedure: as §1, §2
# [4] = tested on: PANC-1 epithelioid carcinoma of the pancreas cell line bearing KRas^G12D oncogenic mutation; experiment: Cell proliferation inhibition (MTS), PANC-1; type: cell-based; conditions: Homo sapiens, 72 h incubation, MTS, compounds 1-53, median from experimental results
# Procedure: as §1, §2
# [5] = tested on: NCI-H358 human lung cancer xenograft; experiment: Subcutaneous NCI-H358 human lung cancer xenograft model in NOD/SCID mice; type: in vivo; conditions: for Tolerability / safety in tumor bearing mice: 10 mg/kg b.i.d. i.p.; for Mean tumor volume: PG-D22 (Day 22 after first dosing), Compound 18 10 mg/kg Bid x 22 day, cisplatin 3.5 mg/kg BIW x 3.5 week, vehicle 630 mm^3; for Mean tumor volume / Tumor growth inhibition (TGI) / Number of mice (of 6) whose body weight loss (BWL) reached 10%: i.p.; for Tumor growth inhibition (TGI) / Anti-tumor effect compared with vehicle group: PG-D22; for Tumor growth inhibition (TGI): TGI=100x(1-T/C), Compound 18 10 mg/kg Bid; for Tumor growth inhibition (TGI) / Number of mice (of 6) whose body weight loss (BWL) reached 10%: cisplatin 3.5 mg/kg BIW; for Anti-tumor effect compared with vehicle group: group-2 p=0.026, group-3 p=0.019; for Number of mice (of 6) whose body weight loss (BWL) reached 10%: tumor bearing mice, compound 18 10 mg/kg Bid
# Excerpt: Evaluation of the Efficacy of compound 18 in the Treatment of Subcutaneous NCI-H358 Human Lung Cancer Xenograft Model in NOD/SCID Mice
# The treatments were started when the mean tumor size reached 141 mm^3. The test article administration and the animal numbers in each study group are shown in the following experimental design table.
# Tumor growth inhibition (TGI): TGI (%) is an indication of antitumor effectiveness, and expressed as: TGI (%)=100×(1−T/C). T and C were the mean tumor volume of the treated and control groups, respectively, on a given day.
# [6] = molecular target: KRas (Homo sapiens, UniProt P01116); experiment: Equilibrium dissociation constant by surface plasmon resonance; type: binding; conditions: SPRi, immobilised KRas, 4° C.
# KRas, sequence (P01116 1-188 isoform P01116-2): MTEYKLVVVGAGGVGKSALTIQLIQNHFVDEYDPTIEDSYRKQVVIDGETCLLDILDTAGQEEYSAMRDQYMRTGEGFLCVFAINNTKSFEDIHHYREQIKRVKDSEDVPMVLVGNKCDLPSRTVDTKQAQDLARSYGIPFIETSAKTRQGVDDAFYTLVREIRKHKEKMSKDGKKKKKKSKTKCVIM
# Procedure: Various concentrations of KRas dissolved in water were manually printed onto bare gold-coated (thickness 47 nm) PlexArray Nanocapture Sensor Chips (Plexera Bioscience, Seattle, Wash., US) at 40% humidity. Each concentration was printed in replicate, and each spot contained 0.2 μL of KRas solution. The chip was incubated in 80% humidity at 4° C. for overnight, and rinsed with 10×PBST for 10 min, 1×PBST for 10 min, and deionized water twice for 10 min. The chip was then blocked with 5% (w/v) non-fat milk in water overnight, and washed with 10×PBST for 10 min, 1×PBST for 10 min, and deionized water twice for 10 min before being dried under a stream of nitrogen prior to use. SPRi measurements
# were performed with PlexAray HT (Plexera Bioscience, Seattle, Wash., US). Collimated light (660 nm) passes through the coupling prism, reflects off the SPR-active gold surface, and is received by the CCD camera. Buffers and samples were injected by a non-pulsatile piston pump into the 30 μL flowcell that was mounted on the coupling prim. […] The signal changes after binding and washing (in AU) are recorded as the assay value. Selected protein-grafted regions in the SPR images were analyzed, and the average reflectivity variations of the chosen areas were plotted as a function of time. Real-time binding signals were recorded and analyzed by Data Analysis Module (DAM, Plexera Bioscience, Seattle, Wash., US). […]
# [7] = tested on: NIH-H358 cell line; experiment: 3D CellTiter-Glo cell viability assay; type: cell-based; conditions: 168 h, 7 days' compound treatment, 0.65% methylcellulose
# Procedure: The protocol to perform 3D CellTiter-Glo™ cell viability assay is as follows:
# Day −1: Cell Plating • Adjust cell concentrations to 1×10^5 cells/ml with respective medium. (Cell concentration is adjusted according to data base or density optimization assay). Mix 3.5 mL of cell suspension 6.5 mL of 1% methylcellulose. Mix and wait for bubbles to disperse before pipetting. This step yields 10 ml of cell suspension in 0.65% methylcellulose solution. Add 99.5 μL cell suspensions to 96-well plates according to plate map with final cell density. • Two duplicate plates will be set up. One is for day 0 reading (T0) and the other will be cultured in incubator for reading at the end point. • Incubate the plates overnight in humidified incubator at 37° C. with 5% CO2.
# Day 0: T0 plate reading and compound treatment • Take T0 plate, add 0.5 μL culture medium to each well for T0 reading. • Add 100 μl CellTiter-Glo® Reagent to each well. • Mix contents for 2 minutes on an orbital shaker to facilitate cell lysis. • Allow the plate to incubate at room temperature for 10 minutes to stabilize luminescent signal. • Record luminescence using EnVision Multi Label Reader. • Dilute the test articles at the concentration indicated at Test Articles Dilution. Add 0.5 μL of each 200× compound working solutions according to plate inoculation map.
# Day 7: Plate reading of 7 days' compound treatment • Add 100 μL CellTiter-Glo® Reagent to each well. • Mix contents for 2 minutes on an orbital shaker to facilitate cell lysis. • Allow the plate to incubate at room temperature for 10 minutes to stabilize luminescent signal. • Record luminescence using EnVision Multi Label Reader.
Structure (SMILES),IC50 [1],IC50 [2],IC50 [3],IC50 [4],IC50 [7],Tolerability / safety in tumor bearing mice [5],Tolerability / safety in tumor bearing mice ([5]; listed as compound 18),Mean tumor volume [5],Tumor growth inhibition (TGI) [5],Anti-tumor effect compared with vehicle group [5],Anti-tumor effect compared with vehicle group ([5]; listed as compound 18),Number of mice (of 6) whose body weight loss (BWL) reached 10% [5],Kd [6],koff ([6]; read-out: Kd (dissociation rate constant))
"COc1cc2c(cc1OCCc1cccc(O)c1)C(c1ccc(C)cc1C)N(C(=O)NCc1cocn1)CC2 (centres unmarked) [Compound 18, 1-(2,4-dimethylphenyl)-7-(3-hydroxyphenethoxy)-6-methoxy-N-(oxazol-4-ylmethyl)-3,4-dihydroisoquinoline-2(1H)-carboxamide]",1970 nM,1210 nM,1660 nM,1590 nM,370 nM,tolerate,safe,238 mm^3,about 62%,significant anti-tumor effects,significant anti-tumor activities,one,8.8 nM,0.00103 s⁻¹
CCNC(=O)N1CCc2cc(OC)c(OCCc3cccc(O)c3)cc2C1c1ccc(C)cc1C (centres unmarked) [Compound 17],3520 nM,1740 nM,3100 nM,1830 nM,620 nM,,,,,,,,,
Cc1ccc(C2c3cc(OCCc4cccc(F)c4)c(O)cc3CCN2C(=O)NCc2cocn2)c(C)c1 (centres unmarked) [Compound 26],2020 nM,790 nM,1010 nM,1150 nM,9350 nM,,,,,,,,,
C=CC(=O)Nc1cc2c(cc1OCCc1cccnc1)C(c1ccc(C)cc1C)N(C(=O)NCc1cocn1)CC2 (centres unmarked) [Compound 45],790 nM,890 nM,990 nM,870 nM,,,,,,,,,,
Cc1ccc(C2c3cc(OCCc4cccc(C(N)=O)c4)c(C(N)=O)cc3CCN2C(=O)NCc2cocn2)c(C)c1 (centres unmarked) [Compound 28],1560 nM,1020 nM,1230 nM,2010 nM,,,,,,,,,,
CCC(=O)CCN1CCc2cc(OC)c(OCCc3cccc(O)c3)cc2C1c1ccccc1C (centres unmarked) [Compound 9],3650 nM,740 nM,19000 nM,24500 nM,,,,,,,,,,
COc1cc2c(cc1OCCc1cccc(O)c1)C(c1c(C)cc(C)cc1O)N(CCC(C)=O)CC2 (centres unmarked) [Compound 10],15900 nM,860 nM,19800 nM,15000 nM,,,,,,,,,,
"N.N.[Cl][Pt][Cl] [Cisplatin, reference compound]",,,,,,,,231 mm^3,about 63%,significant anti-tumor effects,,4,,
COc1cc2c(cc1OCCc1ccc3c(c1)CCO3)C(c1ccc(C)cc1C)N(C(=O)NCc1ccncc1)CC2 (centres unmarked) [Compound 15],2140 nM,890 nM,2580 nM,2130 nM,,,,,,,,,,
CCNC(=O)N1CCc2cc(OC)c(OCCc3cccc(N)c3)cc2C1c1ccc(C)cc1C (centres unmarked) [Compound 50],800 nM,800 nM,800 nM,500 nM,373 nM,,,,,,,,,
COc1cc2c(cc1OCCc1cccc(C(=O)O)c1)C(c1ccc(C)cc1C)N(C(=O)NCc1cocn1)CC2 (centres unmarked) [Compound 31],2070 nM,1910 nM,2110 nM,1830 nM,,,,,,,,,,
CC(=O)Cc1cc2c(cc1OCCc1cccnc1)C(c1ccc(C)cc1C)N(C(=O)NCc1cocn1)CC2 (centres unmarked) [Compound 40],820 nM,1330 nM,960 nM,810 nM,,,,,,,,,,

# Second part, led by results:
IC50 [1],IC50 [2],IC50 [3],IC50 [4],IC50 [7],Structure (SMILES),Tolerability / safety in tumor bearing mice [5],Tolerability / safety in tumor bearing mice ([5]; listed as compound 18),Mean tumor volume [5],Tumor growth inhibition (TGI) [5],Anti-tumor effect compared with vehicle group [5],Anti-tumor effect compared with vehicle group ([5]; listed as compound 18),Number of mice (of 6) whose body weight loss (BWL) reached 10% [5],Kd [6],koff ([6]; read-out: Kd (dissociation rate constant))
550 nM,620 nM,590 nM,490 nM,390 nM,COc1cc2c(cc1OCCc1cccnc1)C(c1ccc(C)cc1C)N(C(=O)NCc1cocn1)CC2 (centres unmarked) [Compound 23],,,,,,,,,
500 nM,600 nM,600 nM,500 nM,334 nM,CCNC(=O)N1CCc2cc(OC)c(OCCc3cnccn3)cc2C1c1ccc(C)cc1C (centres unmarked) [Compound 51],,,,,,,,,
490 nM,320 nM,1210 nM,620 nM,10100 nM,Cc1ccc(C2c3cc(OCCc4cccnc4)c(C)cc3CCN2C(=O)NCc2cocn2)c(C)c1 (centres unmarked) [Compound 42],,,,,,,,,
600 nM,500 nM,700 nM,700 nM,842 nM,CCNC(=O)N1CCc2cc(OC)c(OCCc3cccnc3)cc2C1c1ccc(C)cc1C (centres unmarked) [Compound 46],,,,,,,,,
330 nM,320 nM,510 nM,430 nM,,Cc1ccc(C2c3cc(OCCc4cccnc4)c(C(=O)O)cc3CCN2C(=O)NCc2cocn2)c(C)c1 (centres unmarked) [Compound 35],,,,,,,,,
730 nM,990 nM,910 nM,670 nM,,Cc1ccc(C2c3cc(OCCc4cccnc4)c(NC=O)cc3CCN2C(=O)NCc2cocn2)c(C)c1 (centres unmarked) [Compound 36],,,,,,,,,
